Key:
DOCK10 (DHR2) = target: T1, DOCK10 (DHR2) (Homo sapiens, UniProt Q96BY6); test: Liposome-based GEF activity assay, DOCK10; type: biochemical; settings: 10 µM, 765 nM DOCK10 DHR2
T1 construct: The DOCK10 DHR2 domain, produced in and purified from bacteria; host or cells: bacteria
T1 sequence (Q96BY6 1690-2150 limits assumed): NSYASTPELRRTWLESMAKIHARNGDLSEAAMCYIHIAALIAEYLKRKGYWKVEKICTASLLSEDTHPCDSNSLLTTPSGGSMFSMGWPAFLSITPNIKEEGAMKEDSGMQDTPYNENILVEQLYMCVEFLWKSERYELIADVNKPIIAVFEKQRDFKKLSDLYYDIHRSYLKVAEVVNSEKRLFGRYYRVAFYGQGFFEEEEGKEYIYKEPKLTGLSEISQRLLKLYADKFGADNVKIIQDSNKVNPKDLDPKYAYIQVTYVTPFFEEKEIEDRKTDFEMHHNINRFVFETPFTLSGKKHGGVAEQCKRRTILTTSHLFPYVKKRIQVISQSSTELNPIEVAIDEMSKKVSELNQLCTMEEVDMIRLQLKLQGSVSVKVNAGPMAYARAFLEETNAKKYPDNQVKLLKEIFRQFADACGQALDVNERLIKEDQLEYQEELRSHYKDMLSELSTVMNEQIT
Description: (§1) Full-length N-terminally EE-tagged P-Rex1, P-Rex2, the P-Rex1 DH and DHPH domains and the P-Rex2 DH domain were produced in Sf9 cells using baculoviral transduction and were purified using anti-EE beads, as previously described. Briefly, frozen pellets from 500 ml of Sf9 culture infected with P-Rex expressing high-titre baculovirus were resuspended in ice-cold lysis Sf9-cell lysis buffer 2 (1x PBS, 1% Triton X-100, 5 mM EGTA, 1 mM EDTA, 25 mM NaF, 20 mM β-glycerophosphate, 1 mM DTT, 100 µM PMSF, 10 μg/ml each of leupeptin, pepstatin A, aprotinin and antipain) for 5 min and then ultracentrifuged at 118,000 × g for 1 h at 4°C. Supernatants were incubated with pre-washed anti-EE beads for 90 min on ice with end-over-end rotation. […] Protein concentration and purity were determined by coomassie staining of SDS-PAGE gels. […]
(§2) Liposome-based GEF activity assays were carried out essentially as described, except that GEFs were incubated with inhibitor compounds prior to the assay. […] Small GTPases were isolated using anti-EE antibody-coupled Sepharose beads or glutathione Sepharose beads, as appropriate, by incubation on ice for 90 min with end-over-end rotation, four washes in ice-cold wash buffer and resuspension of beads in Ultima Gold scintillation fluid (Perkin Elmer). ^35S-GTPγS incorporation was assessed by scintillation counting (Packard 1600TR, Liquid Scintillation Analyser).

HEK-293 cells = test: Cell cycle stages by propidium iodide flow cytometry; type: cell-based
Description: Human embryonic kidney 293 (HEK-293) cells were grown at 37°C in a humidified 5% CO2 atmosphere in Dulbecco’s modified Eagle medium (DMEM, Gibco) supplemented with 10% foetal bovine serum (FBS), 100 units/ml penicillin and 100 µg/ml streptomycin. Cells were passaged by tryptic digest 1:4 approximately every 2 days. To measure cell cycle stages, 2 ml HEK293 cells were plated per well of a 6-well dish (Thermo Scientific, Nunc) at 10^5 cells/ml. After 24 h, the medium was replaced with fresh medium containing various concentrations of PREX-in1, as indicated, or 10 μM NSC23766, or vehicle control (0.1% DMSO), and cells were incubated for a further 24 h. The medium was removed but kept aside to recover any detached cells. Wells were washed with PBS, and cells recovered by trypsinization. Cell suspensions were pooled with the culture supernatant and centrifuged at 433 × g for 5 min at RT. Cells were washed in PBS, resuspended in ice-cold 70% ethanol/PBS, and incubated for 30 min at 4°C for fixation and permeabilization. Cells were washed once more in PBS, then stained with 50 µg/ml propidium iodide in PBS containing 100 µg/ml RNase for 30 min at 37°C. Cells were analysed by flow cytometry for the intensity of propidium iodide staining using a FACSCalibur flow cytometer. 10,000 cells were analysed per sample. Data analysis was done using FloJo software.

full-length P-Rex2 = target: T2, full-length P-Rex2 (Homo sapiens, UniProt Q70Z35); test: Liposome-based GEF activity assay, PIP3-stimulated full-length P-Rex2; type: biochemical; settings: 40 nM P-Rex2, read-out: inhibition of PIP3-stimulated Rac-GEF activity of full-length P-Rex2
T2 construct: Full-length N-terminally EE-tagged P-Rex1, P-Rex2; made in house; host or cells: Sf9 cells (baculovirus)
Description: as §1, §2

T2 sequence (Q70Z35 whole entry): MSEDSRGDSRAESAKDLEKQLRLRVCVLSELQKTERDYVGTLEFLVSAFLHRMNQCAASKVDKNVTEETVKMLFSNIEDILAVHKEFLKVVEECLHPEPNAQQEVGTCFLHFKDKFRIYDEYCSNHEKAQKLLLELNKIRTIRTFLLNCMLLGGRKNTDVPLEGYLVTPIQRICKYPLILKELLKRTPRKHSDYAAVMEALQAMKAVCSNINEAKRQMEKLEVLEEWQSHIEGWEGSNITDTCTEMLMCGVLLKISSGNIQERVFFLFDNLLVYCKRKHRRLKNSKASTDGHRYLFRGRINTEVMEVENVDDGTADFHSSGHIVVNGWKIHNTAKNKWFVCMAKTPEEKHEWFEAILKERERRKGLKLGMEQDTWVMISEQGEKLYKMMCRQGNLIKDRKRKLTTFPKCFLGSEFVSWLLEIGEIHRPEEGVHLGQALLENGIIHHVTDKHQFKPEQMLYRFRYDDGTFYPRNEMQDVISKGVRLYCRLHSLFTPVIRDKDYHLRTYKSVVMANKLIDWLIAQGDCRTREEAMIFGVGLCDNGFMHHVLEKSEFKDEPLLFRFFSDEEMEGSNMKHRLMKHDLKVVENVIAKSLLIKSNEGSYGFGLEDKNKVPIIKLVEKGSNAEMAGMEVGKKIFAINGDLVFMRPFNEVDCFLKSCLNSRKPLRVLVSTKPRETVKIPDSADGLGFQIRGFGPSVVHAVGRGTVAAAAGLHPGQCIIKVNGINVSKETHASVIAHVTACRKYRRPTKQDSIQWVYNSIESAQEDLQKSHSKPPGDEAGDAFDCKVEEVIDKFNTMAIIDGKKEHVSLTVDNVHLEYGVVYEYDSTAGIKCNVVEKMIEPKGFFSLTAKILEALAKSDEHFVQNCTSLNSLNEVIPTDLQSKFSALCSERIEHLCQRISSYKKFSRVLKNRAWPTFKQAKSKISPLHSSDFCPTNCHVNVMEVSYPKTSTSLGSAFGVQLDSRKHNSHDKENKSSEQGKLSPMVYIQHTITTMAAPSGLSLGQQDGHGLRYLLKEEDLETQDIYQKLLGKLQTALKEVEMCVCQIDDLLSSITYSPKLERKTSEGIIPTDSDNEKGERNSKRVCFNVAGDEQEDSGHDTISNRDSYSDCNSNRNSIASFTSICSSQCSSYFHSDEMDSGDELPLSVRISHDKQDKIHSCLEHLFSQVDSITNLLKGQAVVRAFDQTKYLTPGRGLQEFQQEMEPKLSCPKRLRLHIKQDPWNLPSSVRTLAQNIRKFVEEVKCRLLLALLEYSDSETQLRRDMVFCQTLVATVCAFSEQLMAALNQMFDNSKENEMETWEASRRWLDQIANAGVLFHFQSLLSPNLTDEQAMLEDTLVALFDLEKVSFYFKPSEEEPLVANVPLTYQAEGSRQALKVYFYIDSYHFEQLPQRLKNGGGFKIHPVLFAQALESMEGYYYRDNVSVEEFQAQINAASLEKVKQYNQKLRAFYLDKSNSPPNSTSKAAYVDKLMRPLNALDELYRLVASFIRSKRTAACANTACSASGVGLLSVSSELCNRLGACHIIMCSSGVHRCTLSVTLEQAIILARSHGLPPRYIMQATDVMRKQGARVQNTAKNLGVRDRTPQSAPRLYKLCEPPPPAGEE

For `COc1ccc(-c2[nH]nc3c2C(c2ccc(-c4ccc(Cl)cc4)o2)C(C#N)=C(N)O3)cc1` (stereo not shown) [PREX-in1, 6-amino-4-[5-(4-chlorophenyl)-2-furyl]-3-(4-methoxyphenyl)-2,4-dihydropyrano[2,3-c]pyrazole-5-carbonitrile], the “effect on GEF activity of DOCK10” value (DOCK10 (DHR2)) was “none of the other GEFs were affected”, the cytotoxic effects (HEK-293 cells; 1 µM) was “did not observe cytotoxic effects” and the “cell death (sub-G1 phase)” value (HEK-293 cells; 24 h treatment, 10 µM) was “promotes cell death”. It also gave an inhibition at 10 µM (full-length P-Rex2) of 82%.

Reference: PMC9645260, “Small-molecule inhibitors of P-Rex guanine-nucleotide exchange factors” (Small GTPases, 2022)
